# Reference: article PMC11923649, “Novel C-2 Aromatic Heterocycle-Substituted Triterpenoids Inhibit Hedgehog Signaling in GLI1 Overexpression Cancer Cells” (ACS Omega, 2025)
# Key:
# [1] = test system: CEM-DNR; assay: MTS cytotoxicity assay, 72 h, CEM-DNR; type: cell-based; details: Homo sapiens
# [2] = test system: U-87 MG-Gli-FLuc cells; assay: MTS viability assay run in parallel with U-87 MG-Gli-FLuc reporter assay; type: cell-based, human; details: up to a dose of 6.25 μmol/L, 24 h
# Experimental: A possible direct inhibition of the reporter (Fluc) and luminescence itself, which could lead to false positive results, was also ruled out in a cellular as well as a noncellular model (data not shown).
# Figure 1 Effect of compounds 11a, 11b, and positive control GANT-61 on Gli1 activation and cell viability measured using the U-87 MG-Gli-FLuc reporter assay. Data are expressed as percentages of control (100%) and represent the mean of three independent experiments with the standard deviation. To distinguish specific inhibition of Gli activation from a nonspecific cellular response, an MTS assay was performed simultaneously under the same conditions in 96-well transparent plates. Statistical analysis of Gli1 activity was performed using one-sample Student’s t-test (mu = 100): *, p < 0.05; **, p < 0.01. The same analysis was used to assess cytotoxicity by MTS assay: #, p < 0.05; ##, p < 0.01.
# The U-87 MG-Gli-FLuc reporter cell line was developed from the human glioblastoma line U-87 MG obtained from ATCC and cultured in EMEM medium supplemented with 10% FBS, 1 mmol/L sodium pyruvate, and a 1 mmol/L nonessential amino acid mixture. […] Panels were placed on a shaker to achieve complete cell lysis, and luminescence was measured after 3 min using an EnVision plate reader.
# [3] = Plasma stability; type: in vitro ADME; details: human plasma
# [4] = Parallel Artificial Membrane Permeability Assay (PAMPA); type: in vitro ADME; details: read-out: PAMPA log Pe (converted)
# Text: The Parallel Artificial Membrane Permeability Assay (PAMPA) has emerged as a primary screen for determining passive transcellular permeability. […] The Caco-2 and MDCK-MDR1 permeability assays are established models of intestinal[37] and blood-brain barriers, respectively.[38]
# [5] = Plasma protein binding, Rapid Equilibrium Dialysis; type: in vitro ADME; details: read-out: Plasma protein binding % Fraction bound (converted)
# Experimental: (§1) Data from a plasma protein binding study can inform about distribution into tissues of the body and reduction in the amount of drug available to be metabolized or cleared from the body. The measurement of plasma protein binding was performed using a Rapid Equilibrium Dialysis device; 11a and 11b compounds reported a percent of fraction bound around 90%. For the microsomal stability assay, human liver microsomes and NADPH cofactor were used to assess phase I oxidation by cytochrome P450 and flavin monooxygenases. The intrinsic clearance calculated from the microsomal stability assay indicated the medium category for both derivatives (Table 3).
# [6] = Microsomal stability, human liver microsomes with NADPH; type: in vitro ADME; details: for Category of Intrinsic clearence: calculated from microsomal stability, category per ref 39; for Microsomal stability % Compound remaining 15 min / Microsomal stability % Compound remaining 30 min / Microsomal stability % Compound remaining 60 min: human liver microsomes, NADPH
# Experimental: as §1
Structure (SMILES),IC50 ([1]; Table 1) [µM],IC50 ([1]; full Table S1) [µM],Inhibition of proliferation or cell death induction (MTS) under reporter conditions [2],Plasma stability % Compound remaining 15 min [3] [%],Plasma stability % Compound remaining 30 min [3] [%],Plasma stability % Compound remaining 60 min [3] [%],Papp [4] [×10⁻⁶ cm/s],fraction unbound [5],Category of Intrinsic clearence [6],Microsomal stability % Compound remaining 15 min [6] [%],Microsomal stability % Compound remaining 30 min [6] [%],Microsomal stability % Compound remaining 60 min [6] [%]
"C=C(C)[C@@H]1CC[C@]2(C(=O)O)CC[C@]3(C)C(CCC4[C@@]5(C)C=C(c6ccco6)C(=O)C(C)(C)C5CC[C@]43C)C12 (stereo partly drawn) [Compound 11a, 2-(Furan-2-yl)-3-oxolupa-1,20(29)-dien-28-oic acid]",15,15.3,not accompanied by inhibition of proliferation or cell death induction,103,100,95,0.0158,~0.1,Medium,88,72,52
"C=C(C)[C@@H]1CC[C@]2(C(=O)O)CC[C@]3(C)C(CCC4[C@@]5(C)C=C(c6ccoc6)C(=O)C(C)(C)C5CC[C@]43C)C12 (stereo partly drawn) [Compound 11b, 2-(Furan-3-yl)-3-oxolupa-1,20(29)-dien-28-oic acid]",22,21.8,not accompanied by inhibition of proliferation or cell death induction,103,104,103,0.0162,~0.1,Medium,84,69,51
